# In ChEMBL document CHEMBL4396913, “Synthesis and biological evaluation of hybrid quinolone-based quaternary ammonium antibacterial agents” (Eur J Med Chem, 2019):
# What was measured:
# [1] = Lipophilicity, log k of the compound at 100 ug/ml by micellar electrokinetic chromatography; format: physicochemical
# [2] = tested on: Staphylococcus aureus; experiment: Antibacterial activity against Staphylococcus aureus ATCC 6538 cultured in MH medium assessed as reduction in bacterial growth incubated for 48 hrs by microbroth dilution method; format: functional; conditions: ATCC 6538, 48 h
# [3] = tested on: Staphylococcus aureus; experiment: Bactericidal activity against Staphylococcus aureus ATCC 6538 cultured in MH medium assessed as reduction in bacterial survival incubated for 48 hrs by microbroth dilution method; format: functional; conditions: ATCC 6538, 48 h
# [4] = tested on: Staphylococcus aureus; experiment: Antibacterial activity against methicillin resistant Staphylococcus aureus N315 cultured in MH medium assessed as reduction in bacterial growth incubated for 48 hrs by microbroth dilution method; format: functional; conditions: N315, 48 h
# [5] = tested on: Staphylococcus aureus; experiment: Bactericidal activity against methicillin resistant Staphylococcus aureus N315 cultured in MH medium assessed as reduction in bacterial survival incubated for 48 hrs by microbroth dilution method; format: functional; conditions: N315, 48 h
# [6] = tested on: Staphylococcus epidermidis; experiment: Antibacterial activity against Staphylococcus epidermidis ATCC 14990 cultured in MH medium assessed as reduction in bacterial growth incubated for 48 hrs by microbroth dilution method; format: functional; conditions: ATCC 14990, 48 h
# [7] = tested on: Staphylococcus epidermidis; experiment: Bactericidal activity against Staphylococcus epidermidis ATCC 14990 cultured in MH medium assessed as reduction in bacterial survival incubated for 48 hrs by microbroth dilution method; format: functional; conditions: ATCC 14990, 48 h
# [8] = tested on: Enterococcus hirae; experiment: Antibacterial activity against Enterococcus hirae ATCC 1052 cultured in BHI medium assessed as reduction in bacterial growth incubated for 48 hrs by microbroth dilution method; format: functional; conditions: ATCC 1052, 48 h
# [9] = tested on: Enterococcus hirae; experiment: Bactericidal activity against Enterococcus hirae ATCC 1052 cultured in BHI medium assessed as reduction in bacterial survival incubated for 48 hrs by microbroth dilution method; format: functional; conditions: ATCC 1052, 48 h
# [10] = tested on: Bacillus spizizenii; experiment: Antibacterial activity against Bacillus subtilis ATCC 6633 cultured in MH medium assessed as reduction in bacterial growth incubated for 48 hrs by microbroth dilution method; format: functional; conditions: ATCC 6633, 48 h
# [11] = tested on: Bacillus spizizenii; experiment: Bactericidal activity against Bacillus subtilis ATCC 6633 cultured in MH medium assessed as reduction in bacterial survival incubated for 48 hrs by microbroth dilution method; format: functional; conditions: ATCC 6633, 48 h
# [12] = tested on: Escherichia coli; experiment: Antibacterial activity against Escherichia coli ATCC 8739 cultured in MH medium assessed as reduction in bacterial growth incubated for 48 hrs by microbroth dilution method; format: functional; conditions: ATCC 8739, 48 h
# [13] = tested on: Escherichia coli; experiment: Bactericidal activity against Escherichia coli ATCC 8739 cultured in MH medium assessed as reduction in bacterial survival incubated for 48 hrs by microbroth dilution method; format: functional; conditions: ATCC 8739, 48 h
# [14] = tested on: Pseudomonas aeruginosa; experiment: Antibacterial activity against Pseudomonas aeruginosa ATCC 9027 cultured in MH medium assessed as reduction in bacterial growth incubated for 48 hrs by microbroth dilution method; format: functional; conditions: ATCC 9027, 48 h
# [15] = tested on: Pseudomonas aeruginosa; experiment: Bactericidal activity against Pseudomonas aeruginosa ATCC 9027 cultured in MH medium assessed as reduction in bacterial survival incubated for 48 hrs by microbroth dilution method; format: functional; conditions: ATCC 9027, 48 h
# [16] = tested on: Proteus vulgaris; experiment: Antibacterial activity against Proteus vulgaris NCTC 4635 cultured in MH medium assessed as reduction in bacterial growth incubated for 48 hrs by microbroth dilution method; format: functional; conditions: NCTC 4635, 48 h
# [17] = tested on: Proteus vulgaris; experiment: Bactericidal activity against Proteus vulgaris NCTC 4635 cultured in MH medium assessed as reduction in bacterial survival incubated for 48 hrs by microbroth dilution method; format: functional; conditions: NCTC 4635, 48 h
# [18] = tested on: Staphylococcus aureus; experiment: Antibacterial activity against methicillin resistant Staphylococcus aureus 6347 cultured in MH medium assessed as reduction in bacterial growth incubated for 48 hrs by microbroth dilution method; format: functional; conditions: Staphylococcus aureus, 6347, 48 h
# [19] = tested on: Staphylococcus aureus; experiment: Bactericidal activity against methicillin resistant Staphylococcus aureus 6347 cultured in MH medium assessed as reduction in bacterial survival incubated for 48 hrs by microbroth dilution method; format: functional; conditions: Staphylococcus aureus, 6347, 48 h
# [20] = tested on: Staphylococcus epidermidis; experiment: Antibacterial activity against methicillin resistant Staphylococcus epidermidis ATCC 13199 cultured in MH medium assessed as reduction in bacterial growth incubated for 48 hrs by microbroth dilution method; format: functional; conditions: ATCC 13199, 48 h
# [21] = tested on: Staphylococcus epidermidis; experiment: Bactericidal activity against methicillin resistant Staphylococcus epidermidis ATCC 13199 cultured in MH medium assessed as reduction in bacterial survival incubated for 48 hrs by microbroth dilution method; format: functional; conditions: ATCC 13199, 48 h
# [22] = tested on: Streptococcus pneumoniae; experiment: Antibacterial activity against Streptococcus pneumoniae cultured in MH medium assessed as reduction in bacterial growth incubated for 48 hrs by microbroth dilution method; format: functional
# [23] = tested on: Serratia marcescens; experiment: Antibacterial activity against Serratia marcescens ATCC 12795 cultured in MH medium assessed as reduction in bacterial growth incubated for 48 hrs by microbroth dilution method; format: functional; conditions: ATCC 12795, 48 h
# [24] = tested on: Serratia marcescens; experiment: Bactericidal activity against Serratia marcescens ATCC 12795 cultured in MH medium assessed as reduction in bacterial survival incubated for 48 hrs by microbroth dilution method; format: functional; conditions: ATCC 12795, 48 h
# [25] = tested on: Escherichia coli; experiment: Antibacterial activity against […] Escherichia coli ATCC 8739 assessed as reduction in bacterial growth incubated for 48 hrs in presence of 50 ug/ml […], PAbetaN by microbroth dilution method; format: functional; conditions: ATCC 8739, 48 h
# [26] = tested on: Escherichia coli; experiment: Bactericidal activity against […] Escherichia coli ATCC 8739 assessed as reduction in bacterial survival incubated for 48 hrs in presence of 50 ug/ml […], PAbetaN by microbroth dilution method; format: functional; conditions: ATCC 8739, 48 h
# [27] = tested on: HEK293; experiment: Cytotoxicity against human HEK293 cells assessed as cell viability upto 20 uM incubated for 72 hrs by MTT assay; format: cell-based; conditions: hek293, 72 h
# [28] = tested on: HEK293; experiment: Cytotoxicity against human HEK293 cells assessed as changes in cell morphology upto 20 uM incubated for 72 hrs by MTT assay; format: cell-based; conditions: hek293, 72 h
# [29] = tested on: Streptococcus pneumoniae; experiment: Bactericidal activity against Streptococcus pneumoniae cultured in MH medium assessed as reduction in bacterial survival incubated for 48 hrs by microbroth dilution method; format: functional
Compound,MIC [2],MBC [3],MIC [4],MBC [5],MIC [6],MBC [7],MIC [8],MIC [10],MBC [11],MIC [12],MBC [13],MIC [14],MBC [15],MIC [16],MBC [17],MIC [18],MBC [19],MIC [22],MIC [23],MBC [24],also measured
CCn1cc(C(=O)O)c(=O)c2cc(F)c(N3CC[N+]4(CC3)CN3C(C)=CC(C)=C(C(=O)O)C3=N4)nc21.[Cl-],128 µg/mL,128 µg/mL,128 µg/mL,128 µg/mL,128 µg/mL,128 µg/mL,16 µg/mL,16 µg/mL,16 µg/mL,8 µg/mL,16 µg/mL,512 µg/mL,512 µg/mL,1 µg/mL,2 µg/mL,128 µg/mL,128 µg/mL,> 512 µg/mL,64 µg/mL,128 µg/mL,log K [1]: -0.3984; MBC [9]: 32 µg/mL; MIC [20]: 64 µg/mL; MBC [21]: 128 µg/mL; MIC [25]: 4 µg/mL; MBC [26]: 16 µg/mL; Activity [27]: Non-Toxic; Activity [28]: Non-Toxic
CCn1cc(C(=O)O)c(=O)c2cc(F)c(N3CC[N+]4(CN5C(C)=CC(C)=C(C(=O)O)C5=N4)C(C)C3)c(F)c21.[Cl-] (configuration not stated),64 µg/mL,64 µg/mL,128 µg/mL,128 µg/mL,32 µg/mL,64 µg/mL,> 512 µg/mL,8 µg/mL,8 µg/mL,4 µg/mL,8 µg/mL,128 µg/mL,> 512 µg/mL,1 µg/mL,1 µg/mL,128 µg/mL,128 µg/mL,> 512 µg/mL,64 µg/mL,64 µg/mL,log K [1]: -0.4791; MIC [20]: 16 µg/mL; MBC [21]: 32 µg/mL; MIC [25]: 2 µg/mL; MBC [26]: 4 µg/mL; Activity [27]: Non-Toxic; Activity [28]: Non-Toxic
CC1=CC(C)=C(C(=O)O)C2=N[N+]3(CN12)[C@H](C)CN(c1c(F)c(N)c2c(=O)c(C(=O)O)cn(C4CC4)c2c1F)C[C@@H]3C.[Cl-] (some centres not stated),8 µg/mL,16 µg/mL,8 µg/mL,8 µg/mL,4 µg/mL,16 µg/mL,> 512 µg/mL,2 µg/mL,2 µg/mL,4 µg/mL,4 µg/mL,32 µg/mL,> 512 µg/mL,1 µg/mL,2 µg/mL,4 µg/mL,8 µg/mL,> 512 µg/mL,32 µg/mL,32 µg/mL,log K [1]: -0.2606; MIC [20]: 2 µg/mL; MBC [21]: 4 µg/mL; Activity [27]: Non-Toxic; Activity [28]: Non-Toxic
COc1c(N2C[C@@H]3CCCN[C@@H]3C2)c(F)cc2c(=O)c(C(=O)O)cn(C3CC3)c12 [MOXIFLOXACIN],0.125 µg/mL,0.125 µg/mL,0.125 µg/mL,0.25 µg/mL,0.063 µg/mL,0.125 µg/mL,16 µg/mL,0.032 µg/mL,0.032 µg/mL,0.125 µg/mL,0.25 µg/mL,16 µg/mL,16 µg/mL,0.004 µg/mL,0.008 µg/mL,0.063 µg/mL,0.063 µg/mL,16 µg/mL,0.25 µg/mL,0.5 µg/mL,MBC [9]: 32 µg/mL; MBC [29]: 64 µg/mL
